The subject of data set [1] is FaDu and THP1 cells and resistant F10R, F100R, T10R, T20R cell lines. To be noted: previous studies; cited from earlier work.
Data set [2] has the same test system. In words: Uptake of 3H-ribavirin in parental and resistant cell lines. The class given is cell-based. Particulars: 0 to 16 hours.
A further data set deals with T1, eIF4E (Homo sapiens, UniProt P06730).
T1 construct: endogenous in cells; host or cells: parental FaDu, F10R and F100R resistant cells
In words: Immunoprecipitation of labelled (3H/14C) ribavirin with eIF4E in living cells. The class given is binding. As for the experimental part: In total, it appears that these AML specimens have developed an “oncogene addiction” to eIF4E making them more sensitive to inhibition of eIF4E than specimens with normal eIF4E levels.
It was determined whether ^14C-ribavirin could immunoprecipitate with eIF4E in the F10R and F100R resistant cell lines.
Cells were treated for 24 hours with ^14C-ribavirin followed by cross-linking and immunoprecipitation and evaluated relative to IgG controls.

Data set [3] relates to relapsed/refractory M4/M5 AML.
From the text: The molecular features identified in present studies were examined to determine whether they were relevant to specimens from patients that received ribavirin monotherapy in the multi-centre phase II AML trial. For responding patients, all available specimens before treatment were monitored, during clinical response, upon the onset of relapse and in non-responders when possible. A total of ten specimens were examined including those from patients that enrolled in the monotherapy trial. […] Of these, samples from 10 patients were available for evaluation of molecular response. […] Gli-1 mRNA levels were monitored using qRT-PCR.
The test system of data set [4] is Gli-1 overexpressing cells. In words: Cell number assay, Gli-1 overexpressing FaDu cells. The class given is cell-based. To be noted: 20 μM ribavirin. Here is the method:
(§1) (FIG. 6). Gli-1 knockdown experiments were performed in parallel.

The next data set concerns Parental FaDu cells. Briefly: Cell number / growth assay, parental FaDu cells. The data set is classed as cell-based. Here is the method:
as §1

A further data set concerns F10R cells. Briefly: Cell number / growth assay, F10R resistant cells. The data set is classed as cell-based. Here is the method:
as §1

A further data set has as its target T2, eIF4E gene product (Homo sapiens, UniProt P06730).
T2 construct: from tissue; host or cells: leukemia specimens of AML patients in the clinical trials
In words: Molecular analysis of eIF4E gene product activity in trial patients. The data set is classed as in vivo. To be noted: after 28 days of oral ribavirin, monotherapy trial. The source says: In terms of clinical response, 1 CR (complete remission), 2 PR (partial remission), 3 BR (blast response), 6 SD (stable disease), 3PD (progressive disease) were observed out of 15 evaluable patients. […] A biphasic molecular response was observed, where initially the eIF4E gene product was dramatically re-distributed to the cytoplasm in patients that responded. This was followed by a drop in eIF4E RNA and protein levels (up to one 28 day cycle).

Another data set deals with cyclin D1 and VEGF. In words: Protein levels of eIF4E export and translation targets as a function of ribavirin treatment. The data set is classed as cell-based.
The subject of a further data set is Gli-1 mRNA. In words: Gli-1 mRNA levels in patient specimens (qRT-PCR). The data set is classed as in vivo, human. To be noted: two patients that did not respond (PD). The source says: For responding patients, in all cases Gli-1 mRNA levels were higher at resistance than during response.
The molecular features identified in present studies were examined to determine whether they were relevant to specimens from patients that received ribavirin monotherapy in the multi-centre phase II AML trial. For responding patients, all available specimens before treatment were monitored, during clinical response, upon the onset of relapse and in non-responders when possible. A total of ten specimens were examined including those from patients that enrolled in the monotherapy trial. Results from the trial, when closed, were 1 CR, 2 PR, 3 BR, 6 SD, 3 PD with 15 evaluable patients (Clinicaltrials.gov). Of these, samples from 10 patients were available for evaluation of molecular response. […] Gli-1 mRNA levels were monitored using qRT-PCR. […] (See above table).

Data set [5] has as its system ENT1, ADK or Gli-1 levels. Briefly: Deep sequencing of 10R cells during ribavirin treatment. The data set is classed as cell-based.
From the text: All deep sequencing in resistant cells is done in the absence of ribavirin.
The test system of a further data set is MDR1. Briefly: MDR1 levels in patients. To be noted: Patient 10 (BR), four cycles. The data set is classed as in vivo, human.
Another data set relates to ENT1. Briefly: ENT1 RNA levels in patients (RT-qPCR). The data set is classed as in vivo, human. Particulars: Patient 10 (BR), four cycles. In general terms: Quantitative PCR measures a nucleic acid by following its amplification.
Another data set has as its system F100R cells. In words: Cell growth assay, type 1 resistant F100R cells. The class given is cell-based. To be noted: GDC-0449, type 1 resistant F100R cells.
The conditions of data set [6]: reported according to Roche; cited from earlier work.

“Also recorded” adds a separate entry of the source. Read-outs that look alike come from different tables or passages of the source.

The values below come from patent US9545416B2 (Universite de Montreal, priority 2011, dated 2017).

T2 sequence (P06730 whole entry): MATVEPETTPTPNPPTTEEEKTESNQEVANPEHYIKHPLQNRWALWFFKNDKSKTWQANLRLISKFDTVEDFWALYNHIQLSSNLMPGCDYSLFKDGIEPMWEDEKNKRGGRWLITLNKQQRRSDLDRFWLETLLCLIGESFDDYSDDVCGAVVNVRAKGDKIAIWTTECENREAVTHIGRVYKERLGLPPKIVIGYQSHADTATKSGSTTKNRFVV

`NC(=O)c1ncn([C@@H]2O[C@H](CO)[C@@H](O)[C@H]2O)n1` [ribavirin, 1-[(2R,3R,4S,5R)-3,4-dihydroxy-5-(hydroxymethyl)oxolan-2-yl]-1H-1,2,4-triazole-3-carboxamide]: the “time of maximal uptake after ribavirin treatment” value in [1] is 8 to 10 h. The 3H-ribavirin uptake result in data set [2] (F10R cells) is “indistinguishable from parental FaDu cells”; in data set [2] (F100R, T10R and T20R cell lines) it was “severe defects in ribavirin uptake”. Besides, the “immunoprecipitation of 14C ribavirin with eIF4E” value is listed as “does not immunoprecipitate with eIF4E; also recorded: did not immunoprecipitate” at eIF4E (F10R cell line) and “does not immunoprecipitate with eIF4E” at eIF4E (F100R cell line). Moreover, the “number of patients with BR (blast response)” value in data set [3] (out of 15 evaluable patients) came to 3. Moreover, the “number of patients with CR (complete remission)” value in [3] (out of 15 evaluable patients) came to 1. Besides, in [3] (out of 15 evaluable patients), the “number of patients with PD (progressive disease)” value stood at 3. In addition, in [3] (out of 15 evaluable patients), the “number of patients with PR (partial remission)” value is recorded as 2. The “number of patients with SD (stable disease)” value in [3] (out of 15 evaluable patients) is given as 6. The drop in blasts in data set [3] (patient 18 (SD), during response) worked out at 20%. The “cell number as % of the untreated Gli-1 overexpressing cells” value in data set [4] was found to be 95%. Also, the “change of plasma ribavirin levels” value (CR patient of combination trial after Ara-C lowered to 10 mg/day) is recorded as “near doubling”. In addition, the ribavirin plasma levels is 4 to 10 µM (combination trial with subcutaneous low dose Ara-C); 20 to 30 µM (monotherapy trial, 2000 mg/day); 20 µM (monotherapy trial, 2800 mg/day). Further, the “decrease in cell number” value with Parental FaDu cells (10 μM ribavirin for 96 hours) is “about 50%”. Moreover, the “reduction of cell number” value in the data set with Parental FaDu cells (20 μM ribavirin) was found to be 50%. Also, in the data set with F10R cells (20 μM ribavirin, RNAi knockdown of Gli-1 in F10R cells), the “cell numbers as % of the same cells without ribavirin” value is reported as “about 50%”. In addition, the growth result with F10R cells (20 μM ribavirin, siRNA luciferase treated F10R cells) is recorded as “unaffected”. For the same compound, on eIF4E gene product, the “mRNA export activity of the eIF4E gene product” value is listed as “substantially reduced”. The “protein levels of cyclin D1 and VEGF” value with cyclin D1 and VEGF (parental cell lines) is on record as “reduces levels of these proteins”; in the data set on cyclin D1 and VEGF (resistant cell lines), “no longer affects these”. Also, the “Gli-1 levels after 28 days of ribavirin” value in the data set with Gli-1 mRNA is on record as “not lowered”. Further, the “ENT1, ADK or Gli-1 levels on addition of ribavirin” value in data set [5] is recorded as “did not alter”. Moreover, the “increase in MDR1 at relapse” value in the data set with MDR1 stood at 17 fold. The “reduction in ENT1 levels at relapse” value in the data set with ENT1 amounted to 3 fold.

As for `CS(=O)(=O)c1ccc(C(=O)Nc2ccc(Cl)c(-c3ccccn3)c2)c(Cl)c1` [GDC-0449], the “ribavirin binding to eIF4E after GDC-0449 treatment” value at eIF4E (F10R cells) is “increase in ribavirin binding to eIF4E”. Also, the growth result is listed as “no effect” in the data set on F100R cells and “did not affect” with F10R cells (3 nM GDC-0449 alone, F10R cells). For the same compound, in the data set on Parental FaDu cells (3 nM GDC-0449 alone), the reduction in growth came to 25%. Besides, the plasma levels in data set [6] was 3 nM.
